Data set [1] deals with E. faecalis v583. Nature of the data set: Inhibition of Enterococcus faecalis decarboxylation activity in vitro. As to conditions: levodopa remaining in E. faecalis v583 culture, BHI broth pH 5, 1.5 mM levodopa, 24 h at 37° C., anaerobic, read-out: IC50 @ 60 min. The class given is cell-based. As to the method:
A vial of 200 μL of E. faecalis v583 was removed from a −80° C. freezer and thawed in an anaerobic chamber containing an atmosphere of either 95/5 N2/H2 (v/v) or 90/5/5 N2/H2/CO2 (v/v). 200 μL was inoculated into 10 mL of sterile, anaerobic BHI broth, pH 5 (adjusted with NaOH). The culture was grown overnight at 37° C. under anaerobic conditions.
After overnight incubation, 40 μL of the saturated starter culture was mixed with 744 μL of sterile, anaerobic BHI broth, pH 5 that had been supplemented with 1.5 mM levodopa. To this was added 16 μL of a 50-fold concentrated stock solution of inhibitor that had been dissolved in either DMSO, H2O, or DMSO:H2O (1:1 v/v). The final concentration of the inhibitor in each condition was 0, 0.001, 0.01, 0.1, 1, 10, or 100 μM. The contents of each incubation were mixed, and then 100 μL was transferred into a fresh 96-well plate. […]
The samples were analyzed by using an Agilent 6470 triple quadrupole mass spectrometer equipped with an Acquity UPLC. […] The levodopa was detected by using the mass spectrometer in multiple reaction monitoring (MRM) mode, quantifying the transition 198.1 to 151.9 m/z in positive mode. […] Tolbutamide was monitored using MRM and quantifying the transition of 271.1 to 91.0 m/z in positive mode. […]
The amount of levodopa was quantified by normalizing the area to the area of tolbutamide internal standard within each sample. […]

Data set [2] deals with T1, Tyrosine decarboxylase (tdc) (Enterococcus faecalis, UniProt P0DTQ4).
T1 construct: made in house
T1 sequence (P0DTQ4 1-620): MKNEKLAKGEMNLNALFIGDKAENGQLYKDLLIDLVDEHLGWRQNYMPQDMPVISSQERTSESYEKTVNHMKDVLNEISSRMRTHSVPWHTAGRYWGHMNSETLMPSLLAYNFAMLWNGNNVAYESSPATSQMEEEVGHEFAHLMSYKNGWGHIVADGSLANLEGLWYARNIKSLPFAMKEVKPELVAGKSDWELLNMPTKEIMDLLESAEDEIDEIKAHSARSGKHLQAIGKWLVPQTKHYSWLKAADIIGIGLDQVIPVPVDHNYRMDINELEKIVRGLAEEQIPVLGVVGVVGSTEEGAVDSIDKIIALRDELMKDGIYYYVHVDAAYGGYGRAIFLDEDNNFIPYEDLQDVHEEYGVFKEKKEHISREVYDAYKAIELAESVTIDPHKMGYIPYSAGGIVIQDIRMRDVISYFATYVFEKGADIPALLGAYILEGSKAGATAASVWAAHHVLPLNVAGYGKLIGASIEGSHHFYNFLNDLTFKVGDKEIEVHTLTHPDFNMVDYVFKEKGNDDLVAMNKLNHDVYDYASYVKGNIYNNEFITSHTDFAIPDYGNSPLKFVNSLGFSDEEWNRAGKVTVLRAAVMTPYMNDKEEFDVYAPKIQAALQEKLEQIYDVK
Nature of the data set: Inhibition of tyrosine decarboxylase in vitro. The settings on record: 60 min preincubation of tdc with inhibitor at room temperature; dopamine formed from levodopa, LC-MS. The data set is classed as biochemical. On the procedure: Tyrosine decarboxylase (tdc) was obtained by following a previously published literature procedure (Rekdal et al., Science 2019; 364(6445):eaau6323). The tdc (220 nM final concentration) was thawed on ice and then mixed with pyridoxal-5-phosphate (2.2 mM final concentration) in 200 mM sodium acetate buffer, pH 5.5 optionally containing 1 mM TCEP. To this mixture was added inhibitor at a final concentration of 1000, 333, 111, 37, 12, 4.1, 1.4, or 0 μM (final volume: 100 μL; inhibitor was 100-fold concentrated in a solution of DMSO, H2O, or DMSO:H2O (1/1 v/v)). The protein-inhibitor mixture was incubated at room temperature for 60 min. 6 μL of this mixture was then withdrawn from each solution and mixed with 54 μL of 10 mM levodopa in 200 mM sodium acetate buffer pH 5.5. The final concentration of the reaction was 22 nM tdc, 220 μM pyridoxal-5-phosphate, 9 mM levodopa in 200 mM sodium acetate buffer pH 5.5 with 0-100 μM inhibitor. The reaction proceeded for 5 min at room temperature before being quenched by the addition of 540 μL acetonitrile containing 0.1% (v/v) formic acid supplemented with 200 nM tolbutamide as an internal standard. The reactions were centrifuged (3,000 g, 10 min), and then 100 μL of each supernatant was transferred to a fresh plate. 100 μL of acetonitrile containing 0.1% (v/v) formic acid supplemented with 200 nM tolbutamide was added. An external standard curve containing 0-150 μM dopamine was prepared in the exact same manner.
Dopamine formed in each reaction was quantified by using an Agilent 6470 triple quadrupole mass spectrometer equipped with an Acquity UPLC. Mobile phase A consisted of H2O containing 10 mM ammonium formate, pH 3.0 and supplemented with 0.1% (v/v) formic acid. Mobile phase B consisted of acetonitrile containing 10 mM ammonium formate, pH 3.0 and supplemented with 0.1% (v/v) formic acid. 5 μL of each sample was injected onto a BEH Amide column (Waters Corporation, 2.1×50 mm, 1.7 μm). The gradient was set to: 100% mobile phase B at 0 min, decreasing linearly to 65% mobile phase B by 1.5 min, held constant at 65% mobile phase B until 2.5 min, ramped back up to 100% mobile phase B by 2.6 min, and held constant at 100% mobile phase B until 4.2 min. The flow rate was 0.6 mL/min. The dopamine was detected by using the mass spectrometer in multiple reaction monitoring (MRM) mode, quantifying the transition 154.1 to 137.0 m/z in positive mode. The fragmentor setting was 74, the collision energy was 9, and the cell accelerator voltage was 4, and the dwell time was 20. Tolbutamide was monitored using MRM and quantifying the transition of 271.1 to 91.0 m/z in positive mode. The fragmentor setting was 88, the collision energy was 37, and the cell accelerator voltage was 4, and the dwell time was 20.
The amount of dopamine was quantified by normalizing the area to the area of tolbutamide internal standard within each sample. This relative response was then compared to that of the standard curve to obtain the dopamine formed within each sample. The concentration of dopamine formed as a function of the inhibitor concentration at the preincubation stage was plotted in GraphPad Prism 8, and the IC50 was calculated using the non-linear fit for the standard IC50 curve equation “[inhibitor] vs response (three parameters).”

The conditions of data set [3]: carbidopa administered with levodopa; cited from earlier work.
The test system of data set [4] is hepatocytes.
Description: In a 50 mL falcon tube, 40 mL of Gibco hepatocyte thawing medium was added. The remaining 10 mL of medium was used to gently transfer hepatocytes into a falcon tube using a wide-mouth pipette. The mixture was centrifuged briefly at low speed (100 g for 30 sec) to gather cells at the base of the tube. The supernatant was removed from the tube then bleached and the liquid discarded, leaving behind the cell pellet in the tube. About 4 mL of Gibco Williams E phenol-free medium was added to the tube to get a final count of 1 mil/mL, tilting gently by hand to scatter the cell pellet. […] Count was repeated twice and averaged to calculate the concentration in solution. Count of 1.2 mil/mL was found, and another 800 μL of incubation medium was added to the tube to bring the count to 1 mil/mL. Four wells of a 24 well plate were plated with 1 mL per well, and the plate was gently agitated to distribute a uniform number of cells per well. The plate was pre-incubated for about 10 min at 37° C. […] The plates were agitated to distribute compounds, then 200 μL aliquots were taken from each well and treated with an equal volume of ice-cold acetonitrile to quench catalysis and monitor progress. The quenching and sampling procedure was repeated at 4 h for 4-h samples. The quenched samples were centrifuged at 4000 g for 10 min at 4° C. and the supernatants were saved for analysis.
Data set [5] relates to microbial enzyme TDC in the rat microbiome. Nature of the data set: In vivo metabolism of levodopa: levodopa in circulation after inhibition of microbial TDC. As to conditions: oral gavage, whole blood, LC-MS/MS. An excerpt:
The microbial enzyme TDC in the rat microbiome was inhibited with alpha-fluoromethyltyrosine (AFMT). On day 0, male Sprague Dawley rats were prophylactically treated with single oral gavage of vehicle, carbidopa, carbidopa+S-AFMT, or carbidopa+R-AFMT, respectively. On day 1, solutions of levodopa, carbidopa, S-AFMT in 1% methyl cellulose (w/v), and 1% ascorbic acid (w/w) in deionized (DI) water were applied by oral gavage to male Sprague Dawley rats.
Whole blood samples were drawn and levodopa concentrations were determined by LC-MS/MS at 0, 5, 10, 15, 30, 45, 90, and 180 min post-application (12 animals per time point).

`N[C@](CF)(Cc1ccc(O)cc1)C(=O)O` [T, (R)-2-amino-3-fluoro-2-(4-hydroxybenzyl)propanoic acid]: the values for the IC50 in data set [1] and in data set [2] were 18.5 µM and 82.3 µM, respectively. As to `CC(Cc1ccc(O)c(O)c1)(NN)C(=O)O` (single isomer, unassigned; (-)) [carbidopa, (−)-L-α-hydrazino-α-methyl-β-(3,4-dihydroxybenzene) propanoic acid monohydrate], the “reduction of the amount of levodopa required to produce a given response” value in data set [3] is listed as “about 75%”. For `NC(Cc1ccc(O)cc1)(C(=O)O)C(F)F` (stereo not shown) [Compound K, 2-amino-3,3-difluoro-2-(4-hydroxybenzyl)propanoic acid], in data set [2], the “IC50 @ 60 min” value is recorded as “Minor inhibition”. In the case of `NCCc1cccc(O)c1` [meta-tyramine], in data set [4], the “metabolites produced by hepatocytes” value was “metabolic derivatives of meta-tyramine (e.g., 3-hydroxyphenylacetic acid and meta-tyramine-O-sulfate) were produced”. In the case of `N[C@@](CF)(Cc1ccc(O)cc1)C(=O)O` [AFMT, alpha-fluoromethyltyrosine], the “levels of levodopa at the earliest timepoint assessed” value in data set [5] is “elevated levels of levodopa at the earliest timepoint assessed”. Take `NC(CF)(Cc1cccc(O)c1)C(=O)O` (stereo not shown) [Compound R, 2-amino-3-fluoro-2-(3-hydroxybenzyl)propanoic acid]: the “IC50 @ 60 min” value in data set [2] is “Minor inhibition”. As to `N[C@@](CF)(Cc1ccc(O)cc1)C(=O)O` [S, (S)-2-amino-3-fluoro-2-(4-hydroxybenzyl)propanoic acid], the IC50 (as a rule, the concentration needed to halve the response being measured) in data set [1] was 2 µM; in data set [2], 4 µM.

Take `COc1ccc(CCC(N)(CF)C(=O)O)cc1` (stereo not shown) [Compound U, 2-amino-2-(fluoromethyl)-4-(4-methoxyphenyl)butanoic acid]: the IC50 in data set [2] is over 1000 µM.

These data come from patent publication US20230181493A1, “BIOMARKERS RELATED TO PARKINSON'S DISEASE AND METHODS OF USING THE SAME” (SENDA BIOSCIENCES, INC., priority 2020, published 2023).
